IC50 data for 14 molecules are collected here from patent US11926625B2, “HPK1 antagonists and uses thereof” (Nimbus Saturn, Inc., priority 2021, dated 2024).

In the assay the target is T1, HPK1 (Homo sapiens, UniProt Q92918).
T1 construct: purchased Invitrogen
T1 sequence (Q92918 whole entry): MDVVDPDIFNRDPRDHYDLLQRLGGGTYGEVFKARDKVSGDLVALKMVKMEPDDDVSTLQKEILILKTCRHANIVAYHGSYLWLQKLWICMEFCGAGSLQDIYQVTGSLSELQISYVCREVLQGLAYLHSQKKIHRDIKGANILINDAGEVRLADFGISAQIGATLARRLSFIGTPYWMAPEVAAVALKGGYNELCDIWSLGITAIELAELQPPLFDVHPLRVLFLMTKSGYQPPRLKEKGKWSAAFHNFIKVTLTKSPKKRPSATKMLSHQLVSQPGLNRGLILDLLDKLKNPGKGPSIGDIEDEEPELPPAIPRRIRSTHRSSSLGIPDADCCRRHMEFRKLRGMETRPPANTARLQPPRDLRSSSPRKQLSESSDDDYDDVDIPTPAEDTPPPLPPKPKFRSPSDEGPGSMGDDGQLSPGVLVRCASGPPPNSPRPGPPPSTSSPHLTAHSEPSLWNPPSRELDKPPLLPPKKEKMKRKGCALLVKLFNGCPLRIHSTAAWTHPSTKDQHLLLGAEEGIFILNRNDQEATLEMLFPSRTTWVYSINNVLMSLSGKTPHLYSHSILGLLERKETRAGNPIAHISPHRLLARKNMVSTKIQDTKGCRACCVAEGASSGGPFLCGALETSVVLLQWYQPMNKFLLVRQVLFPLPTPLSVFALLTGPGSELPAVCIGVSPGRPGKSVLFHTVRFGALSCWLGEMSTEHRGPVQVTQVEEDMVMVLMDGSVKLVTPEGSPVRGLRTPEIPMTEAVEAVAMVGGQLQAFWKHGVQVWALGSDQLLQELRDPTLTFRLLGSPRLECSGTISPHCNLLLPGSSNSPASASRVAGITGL
Description: HPK1 biochemical enzyme assay (microfluidic mobility shift, Caliper). The conditions noted are these: 1.5 nM HPK1 (Invitrogen), 1 mM ATP, 30 min preincubation, 60 min at RT, top concentration 3 μM; read-out: HPK1 1000UMATP caliper IC50. The protocol: Example 20. HPK1 Biochemical Enzyme Assay
HPK1 biochemical enzyme assay: HPK1 enzyme inhibition was measured using a microfluidic mobility shift assay. Reactions were performed in a 384-well plate, containing 1.5 nM HPK1 (Invitrogen), in assay buffer (Cama Biosciences; pH 7.4). Test compounds were titrated in ten point curves (top final assay concentration 3 μM), and preincubated with enzyme/substrate mix for 30 min prior to initiation of the reaction by addition of ATP (1 mM final concentration) and substrate (1 μM final concentration; Carna Biosciences) diluted in assay buffer supplemented by MgCl2 (final assay concentration of 5 mM). Following 60 min incubation at RT, the reaction was terminated by addition of 60 μl/well termination buffer (Carna Biosciences) and signal determination using a Caliper EZ Reader (Perkin Elmer, UK).
`CN1CCN(c2ccc(Nc3cnc(-c4ccnc(N(C)C)c4)c4c3C(=O)NC4)nc2)CC1` [Compound I-58, 4-(2-(dimethylamino)pyridin-4-yl)-7-((5-(4-methylpiperazin-1-yl)pyridin-2-yl)amino)-2,3-dihydro-1H-pyrrolo[3,4-c]pyridin-1-one]: the IC50 was 1 to 5 µM.

Regarding `CN1CCN(c2ccc(Nc3ccc(-c4cn[nH]c4)c4c3C(=O)NC4)nc2)CC1` [Compound I-84, 7-((5-(4-methylpiperazin-1-yl)pyridin-2-yl)amino)-4-(1H-pyrazol-4-yl)isoindolin-1-one], the IC50 was less than 1 µM.

Take `CN1CCN(c2ccc(Nc3ccc(-c4ccnc(C5CCOCC5)c4)c4c3C(=O)NC4)nc2)CC1` [Compound I-44, 7-[[5-(4-methylpiperazin-1-yl)-2-pyridyl]amino]-4-(2-tetrahydropyran-4-yl-4-pyridyl) isoindolin-1-one]: the IC50 is 1 to 5 µM.

For the molecule `CCc1cnc(C)cc1-c1ncc(Nc2ccc(N3CCNCC3)cn2)c2c1CNC2=O` [Compound I-21, 4-(5-ethyl-2-methyl-4-pyridyl)-7-[(5-piperazin-1-yl-2-pyridyl)amino]-2,3-dihydropyrrolo [3,4-c]pyridin-1-one], the IC50 was 1 to 5 µM.

`CN1CCN(c2ccc(Nc3ccc(-c4ccnc(C5CCOCC5)n4)c4c3C(=O)NC4)nc2)CC1` [Compound I-62, 7-((5-(4-methylpiperazin-1-yl)pyridin-2-yl)amino)-4-(2-(tetrahydro-2H-pyran-4-yl)pyrimidin-4-yl)isoindolin-1-one]: the IC50 lay in the range of 1 to 5 µM.

Consider `O=C1NCc2c(-c3cnco3)ncc(Nc3ccc(N4CCNCC4)cn3)c21` [Compound I-18, 4-oxazol-5-yl-7-[(5-piperazin-1-yl-2-pyridyl)amino]-2,3-dihydropyrrolo [3,4-c]pyridin-1-one], for which the IC50 fell in the range of 1 to 5 µM.

With `CN1CCN(c2ccc(Nc3ccc(-c4cc(N5CC6CCC(C5)O6)ncn4)c4c3C(=O)NC4)nc2)CC1` [Compound I-61, 4-(6-(8-oxa-3-azabicyclo [3.2.1]octan-3-yl)pyrimidin-4-yl)-7-((5-(4-methylpiperazin-1-yl)pyridin-2-yl)amino) isoindolin-1-one], the IC50 lay in the range of 1 to 5 µM.

For `CN1CCN(c2ccc(Nc3ccc(-c4ccnc(C5CCCCO5)c4)c4c3C(=O)NC4)nc2)CC1` (centres unmarked) [Compound I-65, 7-((5-(4-methylpiperazin-1-yl)pyridin-2-yl)amino)-4-(2-(tetrahydro 2H-pyran-2-yl)pyridin-4-yl)isoindolin-1-one], the IC50 was 1 to 5 µM.

Regarding `CN1CCN(c2ccc(Nc3ccc(-c4ccnc(N5CCC(C#N)CC5)c4)c4c3C(=O)NC4)nc2)CC1` [Compound I-37, 1-[4-[7-[[5-(4-methylpiperazin-1-yl)-2-pyridyl]amino]-1-oxo-isoindolin-4-yl]-2-pyridyl] piperidine-4-carbonitrile], the IC50 was less than 1 µM.

Regarding `CN1CCN(c2ccc(Nc3ccc(-c4ccnc(-c5c(F)cccc5F)c4)c4c3C(=O)NC4)nc2)CC1` [Compound I-40, 4-[2-(2,6-difluorophenyl)-4-pyridyl]-7-[[5-(4-methylpiperazin-1-yl)-2-pyridyl]amino] isoindolin-1-one], the IC50 lay in the range of 1 to 5 µM.

In the case of `CN1CCN(c2ccc(Nc3ccc(-c4cc(C5CCOCC5)ncn4)c4c3C(=O)NC4)nc2)CC1` [Compound I-69], the IC50 is less than 1 µM.

For `Cn1cncc1-c1ccc(Nc2ccc(N3CCNCC3)cn2)c2c1CNC2=O` [Compound I-71, 4-(1-methyl-1H-imidazol-5-yl)-7-((5-(piperazin-1-yl)pyridin-2-yl)amino) isoindolin-1-one], the IC50 is less than 1 µM.

In the case of `O=C1NCc2c(-c3ncco3)ncc(Nc3ccc(N4CCNCC4)cn3)c21` [Compound I-10, 4-oxazol-2-yl-7-[(5-piperazin-1-yl-2-pyridyl)amino]-2,3-dihydropyrrolo [3,4-c]pyridin-1-one], the IC50 lay in the range of 1 to 5 µM.

Turning to `Cc1cccc(C#Cc2cc(-c3ccc(Nc4ccc(N5CCN(C)CC5)cn4)c4c3CNC4=O)ccn2)c1` [Compound I-64], the IC50 was less than 1 µM.
